Experiment [1] concerns Bacillus subtilis. Description: Antibacterial activity against Bacillus subtilis ATCC 6633 at 100 ug/ml after 24 hrs by agar-based microtiter plate assay. In kind it is functional, organism-based.
Experiment [2] deals with Saccharomyces cerevisiae. Description: Antifungal activity against Saccharomyces cerevisiae ATCC 9763 at 200 ug/ml after 24 hrs by agar-based microtiter plate assay. It counts as functional, organism-based.
A further experiment deals with Heteropogon contortus. Description: Nematocidal activity against […] McMaster assessed as inhibition of nematode larval development after 5 days. It counts as functional.
Experiment [3] has as its system Bacillus subtilis. Description: Antibacterial activity against Bacillus subtilis ATCC 6633 after 24 hrs by agar-based microtiter plate assay. In kind it is functional.
Experiment [4] has as its system Bacillus subtilis. To be noted: ATCC 6633, 50 ug/ml.
Description: Antibacterial activity against Bacillus subtilis ATCC 6633 at 50 ug/ml after 24 hrs by agar-based microtiter plate assay
The subject of experiment [5] is Saccharomyces cerevisiae. To be noted: ATCC 9763, 50 ug/ml.
Description: Antifungal activity against Saccharomyces cerevisiae ATCC 9763 at 50 ug/ml after 24 hrs by agar-based microtiter plate assay

The source made the active and inactive calls. The rule behind the calls is not given here.

As for `CNCCc1c(Br)c(Br)c(Br)c(OC)c1OC` [CONVOLUTAMINE H], the LD99 entry in the experiment with Bacillus subtilis [1] and with Saccharomyces cerevisiae [2] was “inactive” throughout. Moreover, in the experiment on Heteropogon contortus, the LD99 stood at 0.2 µg/mL.
For the molecule `COc1c(Br)cc(Br)c2c(CCN(C)C)c(Br)n(OC)c12` [CONVOLUTINDOLE A], the figures for the LD99 in the experiment on Bacillus subtilis [3] and in the experiment with Heteropogon contortus were 50 µg/mL and 0.39 µg/mL, respectively. Moreover, the LD99 entry with Saccharomyces cerevisiae [2] was “inactive”.
As for `c1ccc([C@H]2CN3CCSC3=N2)cc1` [LEVAMISOLE], the LD99 entry in the experiment with Bacillus subtilis [4] and in the experiment with Saccharomyces cerevisiae [5] was “inactive” each time. Besides, the LD99 in the experiment with Heteropogon contortus came to 1.6 µg/mL.

These data come from ChEMBL document CHEMBL1150604, “Convolutindole A and convolutamine H, new nematocidal brominated alkaloids from the marine bryozoan Amathia convoluta” (2002).
